Data: patent US8460894B2, “Calcium-sensing receptor 2 (CaR2) and methods for using” (ABT Holding Company, priority 2002, dated 2013)
Several values for one entry are separate records, joined by “and”; a condition that tells them apart may be missing. Equal entries are not always repeated. Entries after “also recorded” stand apart in the source; their conditions may differ. Values belong to the compound of their own block, whether it stands above or below them.

Legend:
CaR2 = biological target: T1, CaR2 (Homo sapiens, UniProt Q5T6X5, P91S); assay: FLIPR intracellular Ca^++ assay in HEK293 clone expressing CaR2 (HEK-167B12-2.1); assay type: cell-based; conditions: for FLIPR response / activation of CaR2 by ligand: initial ligand testing, ligand alone; for effect of Pb on activation of CaR2 by combined OC and Ca^++: OC and Ca^++ pre-incubated with / in the presence of Pb
T1 construct: molecular acquisition of the full-length cDNA led to the identification of the six coding exons; expressed in transfected cells
T1 sequence (Q5T6X5 19-926 P91S): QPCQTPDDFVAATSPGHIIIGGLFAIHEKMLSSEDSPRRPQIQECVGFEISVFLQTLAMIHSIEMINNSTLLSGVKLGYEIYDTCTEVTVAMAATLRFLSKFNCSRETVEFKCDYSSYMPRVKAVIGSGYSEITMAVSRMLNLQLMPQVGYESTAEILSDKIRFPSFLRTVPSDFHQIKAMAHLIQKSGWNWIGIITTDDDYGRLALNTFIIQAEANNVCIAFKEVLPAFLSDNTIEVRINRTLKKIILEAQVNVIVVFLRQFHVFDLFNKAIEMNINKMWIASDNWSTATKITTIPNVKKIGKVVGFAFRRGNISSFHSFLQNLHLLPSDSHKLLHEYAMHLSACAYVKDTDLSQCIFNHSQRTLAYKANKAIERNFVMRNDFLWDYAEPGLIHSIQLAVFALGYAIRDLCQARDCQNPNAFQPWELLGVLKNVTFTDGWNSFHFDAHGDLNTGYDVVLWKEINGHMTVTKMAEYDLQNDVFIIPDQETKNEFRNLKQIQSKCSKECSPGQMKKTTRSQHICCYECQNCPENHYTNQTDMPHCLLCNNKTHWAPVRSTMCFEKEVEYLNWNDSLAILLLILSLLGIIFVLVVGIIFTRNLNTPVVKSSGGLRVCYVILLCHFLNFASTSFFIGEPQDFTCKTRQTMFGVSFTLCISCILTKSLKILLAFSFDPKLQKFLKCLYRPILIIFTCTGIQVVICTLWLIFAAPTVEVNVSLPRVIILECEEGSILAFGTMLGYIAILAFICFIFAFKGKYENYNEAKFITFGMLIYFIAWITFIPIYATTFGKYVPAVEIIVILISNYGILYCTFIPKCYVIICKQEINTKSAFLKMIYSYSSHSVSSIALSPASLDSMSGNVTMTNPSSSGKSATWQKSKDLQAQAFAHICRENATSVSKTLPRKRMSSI
Procedure: To facilitate pharmacological experimentation, CaR2 cDNA was cloned into the mammalian expression vector pcDNA 3.1 (+) Neo with or without a COOH-terminal FLAG epitope. The transgene was introduced into the HEK293 cell line and stable transfectants were identified. These clones were analyzed for CaR2 expression by qPCR and Western blotting to identify those clones that were suitable for ligand identification.
Based on the homology to the characterized goldfish odorant receptor 5.24, initial studies investigated the ability of 18 naturally occurring amino acids to trigger changes of intracellular Ca^++ levels in the transfected cells, as measured with a fluorescent imaging plate reader (FLIPR).
(§1) Intracellular Ca^++ was measured using a fluorometric imaging plate reader (FLIPR) [Molecular Devices]. Cells were seeded at a density of 1×10^5/well (96-well plate) or 1×10^4/well (384-well plate) in collagen coated plates and incubated overnight at 36.9° C. with 5% CO2. Medium was aspirated from the plates and replaced with equal volumes of a no wash calcium dye (Molecular Devices) and modified Hank's buffered saline solution [Ca^2+-free, Mg^2+-free] (140 mM NaCl, 5.4 mM KCl, 0.64 mM KH2PO4, 3 mM NaHCO3, 5.5 mM C6H12O6, 20 mM HEPES, 2.5 mM Caprylic acid (or 2.5 mM probenecid)). The plates were incubated for 1 hour at 36.9° C. with 5% CO2. FLIPR was used to measure changes in intracellular calcium as relative fluorescence upon activation by ligand.

CaR [1] = assay: Activation of CaR in transfected HEK 293 cells; assay type: cell-based; conditions: HEK293 cells that express the previously characterized CaR
Procedure: as §1
(§2) Also, the apical side of cells lining tubules in Henle's loop in kidney and in epithelial cells lining prostate ducts are microenvironments where a higher than standard extracellular Ca^++ can be expected.
(§3) Having shown that high calcium levels activate CaR2, the effects of several agents known to modulate bone metabolism were determined.

parental HEK293 cells = assay: FLIPR intracellular Ca^++ assay in parental HEK293 cells (no CaR2); assay type: cell-based
Procedure: as §1, §2, §3

Saos-2 osteoblasts = assay: Osteoblast survival and proliferation in high mM Ca^++; assay type: cell-based
Description: Saos-2 osteoblasts (ATCC-HTB-85) express CaR2 as determined by Western Blotting.

CaR [2] = conditions: CaR in transfected HEK 293 cells; read-out: EC50 for Ca^++ at CaR; cited from earlier work

- activation of CaR2 by OC (CaR2; in the absence of calcium): does not activate CaR2
Compound: OC: vitamin K-dependent bone calcium binding protein, 49 amino acids, synthesized by osteoblasts (YLYQWLGAPVPYPDPLEPRREVCELNPDCDELADHIGFQEAYRRFYGPV; UniProt P02818 52-100, looked up)
- synergistic effect of OC and calcium on CaR2 (CaR2; OC and calcium added separately, not pre-incubated): not when both ligands are added separately
- effect of OC on activation of CaR2 by Ca^++ (CaR2; OC pre-incubated with calcium): CaR2 was activated at lower calcium levels and the activation by high mM calcium was potentiated; also recorded: dose-dependent effect; also recorded: activates CaR2 when pre-incubated with 10 mM Ca^++ in a dose-dependent manner; also recorded: increases the sensitivity of CaR2 to Ca^++
- effect of OC and Ca^++ (CaR [1]): not observed
- effect of OC and Ca^++ (parental HEK293 cells; parental HEK293 cells that do not express CaR2): not observed

Compound: NCCCC(=O)O [GABA, reference compound]
- FLIPR response / activation of CaR2 by ligand (CaR2): failed to elicit a positive FLIPR response

- intracellular Ca^++ in the CaR2 clone (CaR2; either ligand (BMP-2 or CT) added alone, absence of calcium): not seen
Compound: calcitonin [CT]

Compound: [Pb+2] [Pb^++, reference compound]
- effect of Pb on activation of CaR2 by combined OC and Ca^++ (CaR2): blocked
- effect of Pb on activation of CaR2 by combined OC and Ca^++ (CaR2; listed as Pb^2+): reversed

Compound: [Ca+2] [Ca^++, calcium]
- growth of Saos-2 cells (Saos-2 osteoblasts; buffer containing 2 mM Ca^++): grew
- proliferation and survival of Saos-2 cells (Saos-2 osteoblasts; medium containing 10 mM Ca^++): did not proliferate
- proliferation and survival of Saos-2 cells (Saos-2 osteoblasts; medium containing 40 mM Ca^2+): survived and proliferated normally
- CaR2 activation by Ca^++ (CaR2; 10 mM Ca^++ (FIG. 4)): modest activation
- CaR2 activation by Ca^++ (CaR2; 40 mM Ca^++ (FIG. 4)): robustly activated
- EC50 (CaR2; HEK293 clone expressing CaR2, FLIPR): 85 mM
- calcium level causing marked increase in fluorescence signal (intracellular Ca^++) (CaR2; clone expressing CaR2 (FIG. 2)): > 20 mM
- FLIPR response / activation of CaR2 by ligand (CaR2): failed to elicit a positive FLIPR response
- increase in fluorescence signal by high calcium levels (parental HEK293 cells; parental cell line, >20 mM calcium): not observed
- EC50 (CaR [2]): 4.1 mM and 4 mM

Compound: CN[C@H](CC(=O)O)C(=O)O [NMDA, reference compound]
- FLIPR response / activation of CaR2 by ligand (CaR2): failed to elicit a positive FLIPR response
